Measurements reported in publication PMC12376128, “In vitro and In Vivo Drug Metabolism Analysis of BPI-460372 - A Covalent TEAD1/3/4 Inhibitor” (Current Drug Metabolism, 2025).

How the values were obtained:
rat hepatocytes [1] = test: in vitro
Experimental: (§1) After mixing, 20 μL of cell suspension was serially transferred into 200 μL of cold acetonitrile containing IS at the time points of 0, 5, 15, 30, 60, and 120 min, respectively.
(§2) The metabolic stability was assessed by measuring the depletion of substrate. The half-life (t1/2), intrinsic clearance (CLint, in virto, µL·min^-1·million cells^-1), whole liver intrinsic clearance (CLint, in vivo, mL·min-1·kg^-1), and in vivo hepatic clearance (CLH, mL·min-1·kg^-1) were calculated following a reported method. In the calculation of CLH, the fraction drug unbound (Fub) was set as 1. The hepatic blood flow, liver weight, and hepatocellularity of five species were used for the calculation of CLint, in vivo [13, 14]. The hepatic extraction ratio (Eh) means the ratio of CLH to hepatic blood flow.

human hepatocytes [2] = test: in vitro
Experimental: as §1, §2

monkey hepatocytes [3] = test: in vitro
Experimental: as §1, §2

mouse hepatocytes [4] = test: in vitro
Experimental: as §1, §2

in vitro = conditions: hepatocytes
Experimental: as §1, §2

dog hepatocytes [5] = test: in vitro
Experimental: as §1, §2

[6] = Metabolite identification in dog plasma; type: in vivo, beagle dogs; conditions: oral 8 mg/kg BPI-460372, average of male and female pooled samples
Experimental: (§3) The plasma samples were acquired from SD rats (n=6, 3 female and 3 male) and beagle dogs (n=6, 3 female and 3 male) after administration of 12 mg/kg and 8 mg/kg of BPI-460372, respectively. The rat urine, feces, and bile samples were acquired in SD rats after administration of 6 mg/kg of BPI-460372.
(§4) Equal volume from each rat was pooled together to get 1 male and 1 female 0-24 h plasma samples. An equal percentage by volume of individual urine sample (0-8, 8-24, and 24-48 h) from 3 female and 3 male rats was pooled by time interval across rats, respectively, resulting in two pooled urine samples (1 male and 1 female). An equal percentage by weight of individual feces samples (0-8, 8-24, and 24-48 h) was pooled by time interval across female and male rats, resulting in two pooled fecal samples. An equal percentage by volume of individual bile samples (0-4, 4-8, 8-24, and 24-48 h) was pooled by time interval across female and male rats, resulting in two pooled bile samples. […] Equal volumes from 3 female and 3 male rats were pooled together to get two 0-48 h plasma samples. For blank samples of plasma, urine, and bile, equal volume was pooled across subjects. For a blank sample of feces, equal weight was pooled across rats.
(§5) The pooled plasma, feces, and bile samples were extracted by adding 3-fold volume of acetonitrile, and the mixture was vortexed (1 min) and sonicated (1 min) before centrifugation (7220 g, 5 min). The pooled urine samples were centrifuged (7220 g, 5 min). Then the supernatant was transferred into a clean tube and evaporated to dryness under the nitrogen stream. The residues were redissolved with an appropriate volume of acetonitrile/water (20: 80, v: v). After centrifugation, the redissolved solution was transferred into an HPLC vial for UHPLC-Orbitrap-HRMS (15000 g, 10 min, 4°C).

[7] = Metabolite identification in rat plasma, urine, feces and bile; type: in vivo, SD rats; conditions: for Relative abundance of MS peak areas, Rat Feces 0-48 h / Relative abundance of MS peak areas, Rat Urine 0-48 h / Relative abundance of MS peak areas, Rat Bile 0-48 h: oral 6 mg/kg BPI-460372, average of male and female pooled samples; for Relative abundance of MS peak areas, Rat Plasma 0-24 h: oral 12 mg/kg BPI-460372, average of male and female pooled samples
Experimental: as §3, §4, §5

human hepatocytes [8] = test: Metabolism and metabolite formation in hepatocytes; conditions: human hepatocytes, 7-EC incubation
Experimental: 10 µM BPI-460372 was incubated in five species (human, cynomolgus monkey, beagle dog, SD rat, and ICR mouse) hepatocytes (1 × 10^6 cells·min^-1) at 37 °C for 4 h. 7-EC, as positive control, was incubated for 0 h and 4 h. For blank control, hepatocytes were inactivated by adding ice-cold acetonitrile, and then the BPI-460372 solution was added. All the samples were duplicates. Incubations were stopped using the same volume of cold acetonitrile. The tube was vortexed, and the duplicate samples were combined. Metabolite profiling and identification of BPI-460372 were conducted by using UHPLC-Orbitrap-HRMS. The samples of 7-EC were analyzed by LC-MS/MS and then semi-quantified using the peak area ratio of analyte versus IS.
For hepatocyte metabolite identification, the different metabolites of BPI-460372 were detected using an ACQUITY UPLC HSS T3 column (1.8 µm, 100 mm × 2.1 mm) and ACQUITY UPLC BEH C18 column (1.7 µm, 100 mm × 2.1 mm) for rat and dog metabolite identification. The mobile phase contained a mixture of 0.1% formic acid in water (A) and 0.1% formic acid in acetonitrile (B). The gradient elution program was as follows: 0.0-1.0 min, 5% B; 1.0-7.0 min, 5%-30% B; 7.0-12.0 min, 30%-80% B; 12.0-16.0 min, 80%-95% B; 16.0-18.0 min, 95% B; 18.0-18.1 min, 95%-5% B. Then, 5% B from 18.1 to 20.0 min was maintained for equilibration. The flow rate was set to 0.5 mL/min, and the column temperature was kept at 40°C. Eluted fractions were monitored by a UV detector at 314 nm.

rat hepatocytes [9] = test: Metabolism and metabolite formation in hepatocytes; type: in vitro ADME, SD rat; conditions: rat hepatocytes, 7-EC incubation;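 for Area Ratio T0 h: peak area of analyte divided by internal standard peak area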
Description: (§6) All the samples were duplicates.

mouse hepatocytes [10] = test: Metabolism and metabolite formation in hepatocytes; type: in vitro ADME, ICR mouse; conditions: mouse hepatocytes, 7-EC incubation;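 note: peak area of analyte divided by internal standard peak area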
Description: as §6

monkey hepatocytes [11] = test: Metabolism and metabolite formation in hepatocytes; type: in vitro ADME, cynomolgus monkey; conditions: monkey hepatocytes, 7-EC incubation;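 for Area Ratio T4 h: peak area of analyte divided by internal standard peak area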
Description: as §6

dog hepatocytes [12] = test: Metabolism and metabolite formation in hepatocytes; type: in vitro ADME, beagle dog; conditions: dog hepatocytes, 7-EC incubation;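 note: peak area of analyte divided by internal standard peak area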
Description: as §6

SMILES: O=c1ccc2ccc(O)cc2o1 [7-hydroxycoumarin]
- CLH (rat hepatocytes [1]; SD, rat, 1 µM): 39.9 mL/min/kg
- Eh (rat hepatocytes [1]; SD, rat, 1 µM): 0.723
- CLint, in vivo (rat hepatocytes [1]; hepatocytes): 144.0 mL/min/kg
- CLint, in virto (rat hepatocytes [1]; rat, hepatocytes): 30.8 µL·min^-1·Million cells^-1
- CLint, in vivo (human hepatocytes [2]; hepatocytes): 122.6 mL/min/kg
- CLH (human hepatocytes [2]; human, 1 µM): 17.7 mL/min/kg
- Eh (human hepatocytes [2]; human, 1 µM): 0.856
- CLint, in virto (human hepatocytes [2]; human, hepatocytes): 33.9 µL·min^-1·Million cells^-1
- CLH (monkey hepatocytes [3]; cynomolgus monkey, 1 µM): 33.5 mL/min/kg
- Eh (monkey hepatocytes [3]; cynomolgus monkey, 1 µM): 0.762
- CLint, in vivo (monkey hepatocytes [3]; hepatocytes): 140.6 mL/min/kg
- CLint, in virto (monkey hepatocytes [3]; monkey, hepatocytes): 39.0 µL·min^-1·Million cells^-1
- CLH (mouse hepatocytes [4]; ICR, mouse, 1 µM): 58.5 mL/min/kg
- Eh (mouse hepatocytes [4]; ICR, mouse, 1 µM): 0.650
- CLint, in vivo (mouse hepatocytes [4]; hepatocytes): 167.1 mL/min/kg
- CLint, in virto (mouse hepatocytes [4]; mouse, hepatocytes): 14.1 µL·min^-1·Million cells^-1
- half-life at 1 µM (in vitro; ICR, mouse): 49.3 min
- half-life at 1 µM (in vitro; SD, rat): 22.5 min
- half-life at 1 µM (in vitro; beagle, dog): 29.8 min
- half-life at 1 µM (in vitro; human): 20.4 min
- half-life at 1 µM (in vitro; monkey): 17.8 min
- CLH (dog hepatocytes [5]; beagle, dog, 1 µM): 25.9 mL/min/kg
- Eh (dog hepatocytes [5]; beagle, dog, 1 µM): 0.838
- CLint, in virto (dog hepatocytes [5]; dog, hepatocytes): 23.3 µL·min^-1·Million cells^-1
- CLint, in vivo (dog hepatocytes [5]; hepatocytes): 160.0 mL/min/kg

SMILES: CCC(=O)N1CC(n2c(=O)n(-c3ccc(C(F)(F)F)cc3)c3nccnc32)C1 [M391]
- Relative abundance of MS peak areas, Dog Plasma 0-48 h [6]: 0.36%
- Relative abundance of MS peak areas, Rat Feces 0-48 h [7]: 21.50%
- Relative abundance of MS peak areas, Rat Urine 0-48 h [7]: 0.015%
- Relative abundance of MS peak areas, Rat Plasma 0-24 h [7]: 0.35%

SMILES: C[C@]12CC[C@H]3[C@@H](CCC4=CC(=O)CC[C@@]43C)[C@@H]1CC[C@@H]2O [Testosterone, testosterone]
- CLH (rat hepatocytes [1]; rat hepatocytes, Fub set as 1): 44.6 mL/min/kg
- CLint, in vivo (rat hepatocytes [1]; rat hepatocytes, scaled to whole liver): 233.5 mL/min/kg
- CLint, in virto (human hepatocytes [2]; human hepatocytes, 1 µM): 52.2 µL·min^-1·Million cells^-1
- CLH (human hepatocytes [2]; human hepatocytes, Fub set as 1): 18.7 mL/min/kg
- CLint, in vivo (human hepatocytes [2]; human hepatocytes, scaled to whole liver): 188.7 mL/min/kg
- CLH (monkey hepatocytes [3]; monkey hepatocytes, Fub set as 1): 36.6 mL/min/kg
- CLint, in vivo (monkey hepatocytes [3]; monkey hepatocytes, scaled to whole liver): 217.3 mL/min/kg
- CLint, in virto (mouse hepatocytes [4]; mouse hepatocytes, 1 µM): 46.6 µL·min^-1·Million cells^-1
- CLH (mouse hepatocytes [4]; mouse hepatocytes, Fub set as 1): 77.4 mL/min/kg
- CLint, in vivo (mouse hepatocytes [4]; mouse hepatocytes, scaled to whole liver): 554.1 mL/min/kg
- half-life at 1 µM (in vitro; ICR, mouse): 14.9 min
- half-life at 1 µM (in vitro; SD, rat): 13.9 min
- half-life at 1 µM (in vitro; beagle, dog): 14.1 min
- half-life at 1 µM (in vitro; human): 13.3 min
- half-life at 1 µM (in vitro; monkey): 11.5 min
- CLint, in virto (dog hepatocytes [5]; dog hepatocytes, 1 µM): 49.1 µL·min^-1·Million cells^-1
- CLH (dog hepatocytes [5]; dog hepatocytes, Fub set as 1): 28.3 mL/min/kg
- CLint, in vivo (dog hepatocytes [5]; dog hepatocytes, scaled to whole liver): 337.8 mL/min/kg

SMILES: C=CC(=O)N1CC(n2c(=O)n(-c3ccc(C(F)(F)F)cc3)c3nccnc32)C1 [M389]
- Relative abundance of MS peak areas, Dog Plasma 0-48 h [6]: 0.15%
- Relative abundance of MS peak areas, Rat Bile 0-48 h [7]: 0.040%
- Relative abundance of MS peak areas, Rat Feces 0-48 h [7]: 16.59%
- Relative abundance of MS peak areas, Rat Urine 0-48 h [7]: 0.050%
- Relative abundance of MS peak areas, Rat Plasma 0-24 h [7]: 0.67%

SMILES: O=C(O)[C@H]1O[C@@H](Oc2ccc3ccc(=O)oc3c2)[C@H](O)[C@@H](O)[C@@H]1O [7-EC-GluA, reference compound]
- Area Ratio T0 h (human hepatocytes [8]; 0 h): 1.07E+03
- Area Ratio T4 h (human hepatocytes [8]; 4 h): 3.85E+06
- Area Ratio T0 h (rat hepatocytes [9]; 0 h): 1.45E+02
- Area Ratio T4 h (rat hepatocytes [9]; 4 h): 8.08E+05
- Area Ratio T0 h (mouse hepatocytes [10]; 0 h): 0.00E+00
- Area Ratio T4 h (mouse hepatocytes [10]; 4 h): 7.44E+06
- Area Ratio T0 h (monkey hepatocytes [11]; 0 h): 6.08E+02
- Area Ratio T4 h (monkey hepatocytes [11]; 4 h): 1.55E+07
- Area Ratio T0 h (dog hepatocytes [12]; 0 h): 0.00E+00
- Area Ratio T4 h (dog hepatocytes [12]; 4 h): 1.27E+07

SMILES: NCC(C(=O)O)n1c(=O)n(-c2ccc(C(F)(F)F)cc2)c2nccnc21 (stereo not shown) [M367]
- Relative abundance of MS peak areas, Dog Plasma 0-48 h [6]: 0.83%
- Relative abundance of MS peak areas, Rat Feces 0-48 h [7]: 2.77%
- Relative abundance of MS peak areas, Rat Urine 0-48 h [7]: 2.55%
- Relative abundance of MS peak areas, Rat Plasma 0-24 h [7]: 0.065%

SMILES: NC(CSCC(O)C(=O)N1CC(n2c(=O)n(-c3ccc(C(F)(F)F)cc3)c3cncnc32)C1)C(=O)O (stereo not shown) [M526]
- Relative abundance of MS peak areas, Rat Bile 0-48 h [7]: 1.52%
